{
  "source": "PubChem BioAssay AID2060912",
  "about": "(Molecular Pharmacology Branch, DTP, NCI, 2025)",
  "system": "HUVEC/MSC spheroids viability",
  "assay": "Human HUVEC/MSC cell line growth inhibition [KRAS2];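 on viability, T/C: percent of DMSO vehicle control luminescence so 100% = untreated viability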",
  "settings": "for viability, T/C: stronger effect = lower value",
  "text": "Multicellular complex tumor spheroid response to RAS pathway inhibitors in combination with a targeted agents in patient-derived cell lines with oncogenic KRAS variants from multiple cancer types\nA high-throughput screen of multi-cell type tumor spheroids was designed to identify active combinations of targeted small molecules and KRAS pathway inhibitors. Complex spheroids include a stromal component modeled by human endothelial cells (HUVEC) and fibroblasts modeled by human mesenchymal stem cells (MSCs). The concentration ranges selected for each drug and investigational agent were based upon clinically achievable concentrations if the clinical Cmax of the agent was known. * [This particular assayID is a followup dataset requested by reviewers of the manuscript. It is a test of the HUVEC and MSC without the tumor cells, and was conducted using different drug plates and a different plate layout.]\nCompounds. The drugs and investigational agents: BI-3406 (NSC825286), BAY-293 (NSC824723), batoprotafib (TNO155; NSC825523), sotorasib (AMG 510; NSC818433), MRTX1257 (NSC819558), elimusertib (BAY 1895344; NSC800525), molibresib (GSK525762; NSC774829), temuterkib (LY3214996; NSC803410), venetoclax (NSC766270), alisertib (NSC759677), olaparib (NSC753686), talazoparib (NSC767125), erdafitinib (NSC781556), ipatasertib (NSC767898), cabozantinib (NSC761068), nintedanib (NSC756659), abemaciclib (NSC768073), docetaxel (NSC628503), trametinib (NSC758246), and sapanisertib (NSC764658) were obtained from the National Cancer Institute (NCI) Developmental Therapeutics Program Chemical Repository. The FDA-approved anticancer drug set is available from the Developmental Therapeutics Program. […] The stock solutions were prepared in dimethyl sulfoxide (DMSO, Sigma-Aldrich, St. Louis, MO, cat. D2650) at 800-fold the tested concentration and stored at -70 degrees C prior to their use. All drugs and investigational agents were tested over a range starting from a high concentration at or near the clinical Cmax and decreasing in half-log increments. If the clinical Cmax for an agent had not been determined, the highest concentration tested was 10 microM.\nCell Culture. All cells were maintained in an incubator at 37 degrees C and 5% CO2 with 95% humidity. The PDC lines were cultured according to standard operating procedures established by the NCI PDMR (https://pdmr.cancer.gov/sops/default.htm). Briefly, all PDCs were thawed and cultured in Matrigel-coated flasks prepared with a working solution of 1X Ham's F-12 nutrient mix, without supplementation (Invitrogen, Waltham, MA, cat. 11765054), 100 U/mL penicillin-streptomycin (Invitrogen, cat. 15140122), and 2.5% Matrigel (Corning Inc., Corning, NY, cat. 354248) for the first three passages. All PDCs were cultured in complete DMEM/F-12 media containing advanced DMEM/F-12 (Invitrogen, cat. 12634028), 4.9% defined fetal bovine serum, heat inactivated (HyClone Laboratories Inc., Logan, UT, cat. SH30070.03HI), 389 ng/mL hydrocortisone (Sigma-Aldrich, cat. H4001), 9.7 ng/mL human EGF recombinant protein (Invitrogen, cat. PHG0313), 23.4 microg/mL adenine (Sigma-Aldrich, cat. A2786), 97.3 U/mL penicillin-streptomycin (Invitrogen, cat. 15140122), 1.9 mM L-glutamine (Invitrogen, cat. 25030081), and 9.7 microM Y-27632 dihydrochloride (Tocris Bioscience, Bristol, United Kingdom, cat. 1254). The PDCs were cultured in complete DMEM/F12 media without 9.7 microM Y-27632 dihydrochloride for at least two passages prior to the screen. The established cell line HOP-62 was cultured in RPMI 1640 medium, HEPES (Invitrogen, cat. 22400105) with 10% defined fetal bovine serum (HyClone Laboratories Inc., cat. SH30070.03) and 2 mM L-glutamine (Invitrogen, cat. 25030081). The pooled donor HUVEC were cultured in endothelial cell growth medium 2 (PromoCell, Heidelberg, Germany, cat. C-22011) and the hMSC were cultured in mesenchymal stem cell growth medium 2 (PromoCell, cat. C-28009). […]",
  "data": [
    {"smiles": "Cn1ncnc1[C@H]1c2n[nH]c(=O)c3cc(F)cc(c23)N[C@@H]1c1ccc(F)cc1", "note": "+ COc1cc2nc(C)nc(NC(C)c3cc(N)cc(C(F)(F)F)c3)c2cc1OC1CCOC1", "values": [
      {"measurement": "IC50", "setting": "curve of first compound, second compound 0.0316 µM", "result": "> 100", "unit": "nM"},
      {"measurement": "IC50", "setting": "curve of first compound, second compound 0.1 µM", "result": "> 100", "unit": "nM"},
      {"measurement": "IC50", "setting": "curve of first compound, second compound 0.316 µM", "result": "> 100", "unit": "nM"},
      {"measurement": "IC50", "setting": "curve of first compound, second compound 1 µM", "result": "> 100", "unit": "nM"},
      {"measurement": "IC50", "setting": "curve of first compound, second compound 3.16 µM", "result": "> 100", "unit": "nM"},
      {"measurement": "IC50", "setting": "curve of first compound, second compound 10 µM", "result": "> 100", "unit": "nM"},
      {"measurement": "viability, T/C", "setting": "second compound 0.0316 µM, first compound 0.000316 µM", "result": 107, "unit": "%"},
      {"measurement": "viability, T/C", "setting": "second compound 0.0316 µM, first compound 0.001 µM", "result": 110, "unit": "%"},
      {"measurement": "viability, T/C", "setting": "second compound 0.0316 µM, first compound 0.00316 µM", "result": 118, "unit": "%"},
      {"measurement": "viability, T/C", "setting": "second compound 0.0316 µM, first compound 0.01 µM", "result": 89.7, "unit": "%"},
      {"measurement": "viability, T/C", "setting": "second compound 0.0316 µM, first compound 0.0316 µM", "result": 109, "unit": "%"},
      {"measurement": "viability, T/C", "setting": "second compound 0.0316 µM, first compound 0.1 µM", "result": 96.8, "unit": "%"},
      {"measurement": "viability, T/C", "setting": "second compound 0.1 µM, first compound 0.000316 µM", "result": 89.2, "unit": "%"},
      {"measurement": "viability, T/C", "setting": "second compound 0.1 µM, first compound 0.001 µM", "result": 96.9, "unit": "%"},
      {"measurement": "viability, T/C", "setting": "second compound 0.1 µM, first compound 0.00316 µM", "result": 100, "unit": "%"},
      {"measurement": "viability, T/C", "setting": "second compound 0.1 µM, first compound 0.01 µM", "result": 117, "unit": "%"},
      {"measurement": "viability, T/C", "setting": "second compound 0.1 µM, first compound 0.0316 µM", "result": 96, "unit": "%"},
      {"measurement": "viability, T/C", "setting": "second compound 0.1 µM, first compound 0.1 µM", "result": 107, "unit": "%"},
      {"measurement": "viability, T/C", "setting": "second compound 0.316 µM, first compound 0.000316 µM", "result": 92.9, "unit": "%"},
      {"measurement": "viability, T/C", "setting": "second compound 0.316 µM, first compound 0.001 µM", "result": 101, "unit": "%"},
      {"measurement": "viability, T/C", "setting": "second compound 0.316 µM, first compound 0.00316 µM", "result": 102, "unit": "%"},
      {"measurement": "viability, T/C", "setting": "second compound 0.316 µM, first compound 0.01 µM", "result": 103, "unit": "%"},
      {"measurement": "viability, T/C", "setting": "second compound 0.316 µM, first compound 0.0316 µM", "result": 97.3, "unit": "%"},
      {"measurement": "viability, T/C", "setting": "second compound 0.316 µM, first compound 0.1 µM", "result": 89.3, "unit": "%"},
      {"measurement": "viability, T/C", "setting": "second compound 1 µM, first compound 0.000316 µM", "result": 95.2, "unit": "%"},
      {"measurement": "viability, T/C", "setting": "second compound 1 µM, first compound 0.001 µM", "result": 89.9, "unit": "%"},
      {"measurement": "viability, T/C", "setting": "second compound 1 µM, first compound 0.00316 µM", "result": 99.3, "unit": "%"},
      {"measurement": "viability, T/C", "setting": "second compound 1 µM, first compound 0.01 µM", "result": 88.9, "unit": "%"},
      {"measurement": "viability, T/C", "setting": "second compound 1 µM, first compound 0.0316 µM", "result": 89.3, "unit": "%"},
      {"measurement": "viability, T/C", "setting": "second compound 1 µM, first compound 0.1 µM", "result": 79.5, "unit": "%"},
      {"measurement": "viability, T/C", "setting": "second compound 3.16 µM, first compound 0.000316 µM", "result": 90.9, "unit": "%"},
      {"measurement": "viability, T/C", "setting": "second compound 3.16 µM, first compound 0.001 µM", "result": 104, "unit": "%"},
      {"measurement": "viability, T/C", "setting": "second compound 3.16 µM, first compound 0.00316 µM", "result": 85.8, "unit": "%"},
      {"measurement": "viability, T/C", "setting": "second compound 3.16 µM, first compound 0.01 µM", "result": 101, "unit": "%"},
      {"measurement": "viability, T/C", "setting": "second compound 3.16 µM, first compound 0.0316 µM", "result": 92.3, "unit": "%"},
      {"measurement": "viability, T/C", "setting": "second compound 3.16 µM, first compound 0.1 µM", "result": 81.1, "unit": "%"},
      {"measurement": "viability, T/C", "setting": "second compound 10 µM, first compound 0.000316 µM", "result": 72, "unit": "%"},
      {"measurement": "viability, T/C", "setting": "second compound 10 µM, first compound 0.001 µM", "result": 75.9, "unit": "%"},
      {"measurement": "viability, T/C", "setting": "second compound 10 µM, first compound 0.00316 µM", "result": 81.9, "unit": "%"},
      {"measurement": "viability, T/C", "setting": "second compound 10 µM, first compound 0.01 µM", "result": 66.8, "unit": "%"},
      {"measurement": "viability, T/C", "setting": "second compound 10 µM, first compound 0.0316 µM", "result": 77.6, "unit": "%"},
      {"measurement": "viability, T/C", "setting": "second compound 10 µM, first compound 0.1 µM", "result": 73.3, "unit": "%"}
    ]},
    {"smiles": "Cn1nccc1Nc1nccc(-c2cc3c(s2)C(C)(C)N(CCN2CCOCC2)C3=O)n1", "values": [
      {"measurement": "viability, T/C", "setting": "compound 0.0316 µM", "result": "91.1% [middle of 5 runs]"},
      {"measurement": "viability, T/C", "setting": "compound 0.1 µM", "result": "105% [middle of 5 runs]"},
      {"measurement": "viability, T/C", "setting": "compound 1 µM", "result": "99.3% [middle of 5 runs]"},
      {"measurement": "viability, T/C", "setting": "compound 3.16 µM", "result": "40.5% [middle of 5 runs]"},
      {"measurement": "viability, T/C", "setting": "compound 10 µM", "result": "5.24% [middle of 5 runs]"},
      {"measurement": "IC50", "setting": "curve of compound", "result": "2.65 µM [middle of 5 runs]"}
    ]},
    {"smiles": "COc1cc(OC)cc(N(CCNC(C)C)c2ccc3ncc(-c4cnn(C)c4)nc3c2)c1", "values": [
      {"measurement": "viability, T/C", "setting": "compound 0.0316 µM", "result": "60.9% [middle of 5 runs]"},
      {"measurement": "viability, T/C", "setting": "compound 0.1 µM", "result": "45.4% [middle of 5 runs]"},
      {"measurement": "viability, T/C", "setting": "compound 0.316 µM", "result": "38.2% [middle of 5 runs]"},
      {"measurement": "viability, T/C", "setting": "compound 1 µM", "result": "38.3% [middle of 5 runs]"},
      {"measurement": "viability, T/C", "setting": "compound 3.16 µM", "result": "41.8% [middle of 5 runs]"},
      {"measurement": "viability, T/C", "setting": "compound 10 µM", "result": "34.8% [middle of 5 runs]"},
      {"measurement": "IC50", "setting": "curve of compound", "result": "66.1 nM [middle of 5 runs]"}
    ]}
  ]
}
